This is an account of results in patent US9926297B2, “Bicyclic AZA compounds as muscarinic M1 receptor and/or M4 receptor agonists” (Heptares Therapeutics Limited, priority 2014, dated 2018).

Structures are written as SMILES.

The target of assay [1] is T1, human muscarinic M1 receptor (Homo sapiens, UniProt P11229).
T1 sequence (P11229 1-460): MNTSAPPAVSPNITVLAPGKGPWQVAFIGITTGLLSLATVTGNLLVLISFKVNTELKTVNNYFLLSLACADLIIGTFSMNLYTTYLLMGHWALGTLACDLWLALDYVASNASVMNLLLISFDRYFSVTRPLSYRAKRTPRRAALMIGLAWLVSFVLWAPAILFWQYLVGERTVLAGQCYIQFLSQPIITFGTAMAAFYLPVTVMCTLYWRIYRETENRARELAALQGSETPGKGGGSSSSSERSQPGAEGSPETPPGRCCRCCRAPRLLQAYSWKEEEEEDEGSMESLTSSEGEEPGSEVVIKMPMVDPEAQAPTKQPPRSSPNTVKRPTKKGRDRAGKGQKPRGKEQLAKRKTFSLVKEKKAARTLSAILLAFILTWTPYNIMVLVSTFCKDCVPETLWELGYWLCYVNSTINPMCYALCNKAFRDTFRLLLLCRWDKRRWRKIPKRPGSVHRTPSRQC
Briefly: Alphascreen Surefire phospho-ERK1/2 functional assay, M1. The format is cell-based. Conditions: for EC50: phospho-ERK1/2, * = variable results, read-out: pEC50 M1 (converted); for Emax: CHO, read-out: % Emax cf. ACh, M1, CHO cells stably expressing human M1.

For assay [2], the target named is T2, human muscarinic M4 receptor (Homo sapiens, UniProt P08173).
T2 construct: expressed in transfected cells
T2 sequence (P08173 1-479): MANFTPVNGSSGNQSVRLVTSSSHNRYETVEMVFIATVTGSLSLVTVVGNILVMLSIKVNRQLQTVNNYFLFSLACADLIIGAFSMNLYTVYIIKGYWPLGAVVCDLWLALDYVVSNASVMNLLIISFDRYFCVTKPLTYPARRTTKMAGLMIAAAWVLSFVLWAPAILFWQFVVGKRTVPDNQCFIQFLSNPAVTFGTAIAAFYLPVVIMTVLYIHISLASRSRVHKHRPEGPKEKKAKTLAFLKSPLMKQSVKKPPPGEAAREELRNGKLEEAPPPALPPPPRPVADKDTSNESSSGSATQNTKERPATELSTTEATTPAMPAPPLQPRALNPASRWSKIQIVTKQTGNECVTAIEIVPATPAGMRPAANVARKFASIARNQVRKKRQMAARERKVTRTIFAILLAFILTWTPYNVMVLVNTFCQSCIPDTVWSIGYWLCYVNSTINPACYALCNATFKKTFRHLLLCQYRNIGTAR
Briefly: Alphascreen Surefire phospho-ERK1/2 functional assay, M4. The class given is cell-based. Conditions: for EC50: phospho-ERK1/2, * = variable results, read-out: pEC50 M4 (converted); for Emax: CHO, read-out: % Emax cf. ACh, M4, CHO cells stably expressing human M4.

In assay [3] the target is human muscarinic M3 receptor (Homo sapiens, UniProt P20309). Briefly: Alphascreen Surefire phospho-ERK1/2 functional assay, M3. Conditions: for Emax: CHO, read-out: % Emax cf. ACh, M3, CHO cells stably expressing human M3, relative to ACh; for EC50: pEC50 M3, CHO cells stably expressing human M3, phospho-ERK1/2, * = variable results.
In assay [4] the target is T3, human muscarinic M2 receptor (Homo sapiens, UniProt P08172).
T3 sequence (P08172 1-466): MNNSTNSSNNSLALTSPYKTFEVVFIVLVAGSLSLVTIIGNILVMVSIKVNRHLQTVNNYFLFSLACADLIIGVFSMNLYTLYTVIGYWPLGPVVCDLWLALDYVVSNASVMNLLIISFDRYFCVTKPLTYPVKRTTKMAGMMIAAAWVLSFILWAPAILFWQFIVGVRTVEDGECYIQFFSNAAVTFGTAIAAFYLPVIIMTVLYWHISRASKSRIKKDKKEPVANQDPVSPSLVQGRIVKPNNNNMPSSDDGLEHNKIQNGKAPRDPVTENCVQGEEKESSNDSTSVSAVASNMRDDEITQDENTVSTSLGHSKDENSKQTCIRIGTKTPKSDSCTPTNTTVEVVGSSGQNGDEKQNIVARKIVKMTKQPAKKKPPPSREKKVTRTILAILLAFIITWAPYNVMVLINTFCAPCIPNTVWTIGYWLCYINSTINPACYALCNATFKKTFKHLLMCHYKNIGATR
In words: Alphascreen Surefire phospho-ERK1/2 functional assay, M2. To be noted: for Emax: CHO, read-out: % Emax cf. ACh, M2, CHO cells stably expressing human M2, relative to ACh.

The mark [5] stands for this setting: CHO cells stably expressing human M1.
The mark [6] stands for this setting: CHO cells stably expressing human M4.

Chain of human muscarinic M3 receptor (P20309 whole entry): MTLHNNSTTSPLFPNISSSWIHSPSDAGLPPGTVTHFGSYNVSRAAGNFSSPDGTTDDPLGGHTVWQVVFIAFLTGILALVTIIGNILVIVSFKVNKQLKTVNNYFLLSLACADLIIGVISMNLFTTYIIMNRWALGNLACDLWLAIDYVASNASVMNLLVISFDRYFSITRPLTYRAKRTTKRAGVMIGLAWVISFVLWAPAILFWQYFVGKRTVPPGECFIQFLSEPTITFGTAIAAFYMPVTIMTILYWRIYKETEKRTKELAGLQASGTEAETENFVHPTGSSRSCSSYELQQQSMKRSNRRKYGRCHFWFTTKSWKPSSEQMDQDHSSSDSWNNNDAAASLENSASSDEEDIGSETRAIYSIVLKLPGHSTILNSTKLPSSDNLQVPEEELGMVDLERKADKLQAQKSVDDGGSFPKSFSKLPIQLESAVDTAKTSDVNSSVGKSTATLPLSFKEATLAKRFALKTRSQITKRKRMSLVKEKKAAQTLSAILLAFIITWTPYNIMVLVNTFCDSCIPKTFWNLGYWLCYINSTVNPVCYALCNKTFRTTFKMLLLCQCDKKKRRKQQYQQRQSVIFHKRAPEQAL

For the compound `CCOC(=O)N1CCC2(CC(N3CCC(c4cnc(OC)cc4C)CC3)C2)C1` (single isomer, unassigned) [3-6 Isomer 2, ethyl 2-[4-(6-methoxy-4-methylpyridin-3-yl)piperidin-1-yl]-6-azaspiro[3.4]octane-6-carboxylate], the EC50 was over 20000 nM in assay [1] (setting [5]), 39.8 nM in assay [2] (setting [6]), over 20000 nM in assay [3] and over 20000 nM in assay [4]. For the same compound, the Emax in assay [1] (relative to ACh) amounted to 74%; in assay [2] (relative to ACh), 58%; in assay [3] it was 4%; in assay [4], 0%.
Regarding `CCOC(=O)N1CCC2(CC(N3CCC(c4ccnc(N)n4)CC3)C2)C1` (single isomer, unassigned) [3-8 Isomer 2, ethyl 2-[4-(2-aminopyrimidin-4-yl)piperidin-1-yl]-6-azaspiro[3.4]octane-6-carboxylate], the EC50 in assay [1] (setting [5]) was over 20000 nM; in assay [2] (setting [6]), 25.1 nM; in assay [3], over 20000 nM; in assay [4], over 20000 nM. Further, the Emax in assay [1] (relative to ACh) turned out to be 19%; in assay [2] (relative to ACh) it was 54%; in assay [3], 0%; in assay [4], 2%.
As for `CCOC(=O)N1CCC2(CC(N3CCC(c4nccc(N)n4)CC3)C2)C1` (single isomer, unassigned) [3-9 Isomer 2, ethyl 2-[4-(4-aminopyrimidin-2-yl)piperidin-1-yl]-6-azaspiro[3.4]octane-6-carboxylate], the EC50 in assay [1] (setting [5]) is 251 nM; in assay [2] (setting [6]), 25.1 nM; in assay [3], over 20000 nM; in assay [4], over 20000 nM. Also, the Emax in assay [1] (relative to ACh) stood at 103%; in assay [2] (relative to ACh), 96%; in assay [3] it was 4%; in assay [4], 2%.
Turning to `CCOC(=O)N1CCC2(CC(N3CCC(c4cc(C)cnc4OC)CC3)C2)C1` (single isomer, unassigned) [3-12 Isomer 2, ethyl 2-[4-(2-methoxy-5-methylpyridin-3-yl)piperidin-1-yl]-6-azaspiro[3.4]octane-6-carboxylate], the EC50 in assay [1] (setting [5]) is 251 nM; in assay [2] (setting [6]), 3.98 nM; in assay [3], over 20000 nM; in assay [4], over 20000 nM. In addition, the maximum response (Emax) in assay [1] (relative to ACh) came out at 34%; in assay [2] (relative to ACh) it was 110%; in assay [3] it was 5%; in assay [4], 2%.
With `CCOC(=O)N1CCC2(CC(N3CCC(c4cccc(OC)n4)CC3)C2)C1` (single isomer, unassigned) [3-13 Isomer 2, ethyl 2-[4-(6-methoxypyridin-2-yl)piperidin-1-yl]-6-azaspiro[3.4]octane-6-carboxylate], the EC50 in assay [1] (setting [5]) was 12.6 nM; in assay [2] (setting [6]), 12.6 nM; in assay [3], over 20000 nM; in assay [4] it was over 20000 nM. The Emax came to 97% in assay [1] (relative to ACh), 82% in assay [2] (relative to ACh), 1% in assay [3] and 2% in assay [4].
On to `CCOC(=O)N1CCC2(CC(N3CCC(C4CCCNC4=O)CC3)C2)C1` (single isomer, unassigned) [4-1 Isomer 4, ethyl 2-(2-oxo-3,4′-bipiperidin-1′-yl)-6-azaspiro[3.4]octane-6-carboxylate], for which the EC50 was 398 nM in assay [1] (setting [5]), 50.1 nM in assay [2] (setting [6]), over 20000 nM in assay [3] and over 20000 nM in assay [4]. Further, the “% Emax cf. ACh, M1” value in assay [1] (CHO cells stably expressing human M1, relative to ACh) is 58%. For the same compound, in assay [2] (CHO cells stably expressing human M4, relative to ACh), the “% Emax cf. ACh, M4” value amounted to 68%. Moreover, the Emax in assay [3] turned out to be 5%; in assay [4], 3%.
For the compound `CCOC(=O)N1CCC2(CC(N3CCC(C4C(=O)NCCC4C)CC3)C2)C1` (single isomer, unassigned) [4-3 Isomer 2, ethyl 2-(4-methyl-2-oxo-3,4′-bipiperidin-1′-yl)-6-azaspiro[3.4]octane-6-carboxylate], the EC50 in assay [1] (setting [5]) is 158 nM; in assay [2] (setting [6]) it was 12.6 nM; in assay [3], over 20000 nM; in assay [4] it was over 20000 nM. In addition, the Emax is 103% in assay [1] (relative to ACh), 88% in assay [2] (relative to ACh), 4% in assay [3] and 9% in assay [4].
Consider `CCOC(=O)N1CCC2(CC(N3CCC(C4CC(C)CNC4=O)CC3)C2)C1` (single isomer, unassigned) [4-4 Isomer 2, ethyl 2-(5-methyl-2-oxo-3,4′-bipiperidin-1′-yl)-6-azaspiro[3.4]octane-6-carboxylate], for which the EC50 is 31.6 nM in assay [1] (setting [5]), 5.01 nM in assay [2] (setting [6]), over 20000 nM in assay [3] and over 20000 nM in assay [4]. Further, the Emax was 97% in assay [1] (relative to ACh), 73% in assay [2] (relative to ACh), 21% in assay [3] and 19% in assay [4].
For the compound `CCOC(=O)N1CCC2(CC(N3CCC(C4CCCN(CC)C4=O)CC3)C2)C1` (single isomer, unassigned) [4-5 Isomer 2, ethyl 2-(1-ethyl-2-oxo-[3,4′-bipiperidin]-1′-yl)-6-azaspiro[3.4]octane-6-carboxylate], the EC50 was 501 nM in assay [1] (setting [5]), 15.8 nM in assay [2] (setting [6]), over 20000 nM in assay [3] and over 20000 nM in assay [4]. In addition, the Emax worked out at 52% in assay [1] (relative to ACh), 60% in assay [2] (relative to ACh), 9% in assay [3] and 9% in assay [4].
Turning to `CCOC(=O)N1CCC2(CC(N3CCC(C4CCCN(C(C)C)C4=O)CC3)C2)C1` (single isomer, unassigned) [4-6 Isomer 2, ethyl 2-[2-oxo-1-(propan-2-yl)-3,4′-bipiperidin-1′-yl]-6-azaspiro[3.4]octane-6-carboxylate], the EC50 is 126 nM in assay [1] (setting [5]), 50.1 nM in assay [2] (setting [6]), over 20000 nM in assay [3] and over 20000 nM in assay [4]. In addition, the Emax in assay [1] (relative to ACh) is 66%; in assay [2] (relative to ACh), 77%; in assay [3], 9%; in assay [4], 75%.
Turning to `CCOC(=O)N1CCC2(CC(N3CCC(N4CCCOC4=O)CC3)C2)C1` (single isomer, unassigned) [4-7 Isomer 2, ethyl 2-[4-(2-oxo-1,3-oxazinan-3-yl)piperidin-1-yl]-6-azaspiro[3.4]octane-6-carboxylate], the EC50 in assay [1] (setting [5]) is 3980 nM; in assay [2] (setting [6]), 251 nM; in assay [3] it was over 20000 nM; in assay [4], over 20000 nM. Moreover, the Emax in assay [1] (relative to ACh) came out at 73%; in assay [2] (relative to ACh), 67%; in assay [3] it was 10%; in assay [4] it was 1%.
Regarding `CCOC(=O)N1CCC2(CC(N3CCC(N4CCCNC4=O)CC3)C2)C1` (single isomer, unassigned) [4-8 Isomer 1, ethyl 2-[4-(2-oxotetrahydropyrimidin-1(2H)-yl)piperidin-1-yl]-6-azaspiro[3.4]octane-6-carboxylate], the EC50 in assay [1] (setting [5]) was 501 nM; in assay [2] (setting [6]), 63.1 nM; in assay [3] it was over 20000 nM; in assay [4], over 20000 nM. The Emax stood at 42% in assay [1] (relative to ACh), 74% in assay [2] (relative to ACh), 8% in assay [3] and 3% in assay [4].
